Results from patent publication US11414384B2, “P300/CBP hat inhibitors” (Constellation Pharmaceuticals, Inc., priority 2018, dated 2022).

Legend:
[1] = target: p300 HAT domain (residues 1287-1666) (Homo sapiens (Human), UniProt Q09472); assay: p300 HAT SPA assay (scintillation proximity assay, acetylation of biotinylated H3(1-21) peptide); assay type: biochemical; conditions: p300 HAT domain; average of at least 2 replicate titrations; read-out: P300 HAT SPA IC50
Procedure, shortened: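 Purified p300 HAT domain reaction transferred to streptavidin plates to capture biotinylated H3(1-21) peptide, incubated 1.5 hr at RT, and read by scintillation proximity. IC50 values derived from concentration-response data.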

[2] = target: full length p300 (Homo sapiens (Human), UniProt Q09472); assay: full length p300 SPA assay; assay type: biochemical; conditions: average of at least 2 replicate titrations, read-out: FL P300 IC50
Description: Reactions were initiated with 12.5 μL 2 μM biotinylated H3(1-21) peptide (New England Peptide) and run for 1 hr at RT, then quenched with 20 μL stop solution (200 mM Tris pH 8.0, 200 mM EDTA, 2M NaCl, 160 μM anacardic acid). 35 μL of the reaction volume was transferred to a 384-well streptavidin FlashPlate (PerkinElmer) using a Bravo liquid handler (Velocity 11) and incubated for 1.5 hr at RT. Plates were aspirated, washed with 95 μL wash buffer (15 mM Tris pH 8.5, 0.069 μM Brij-35), aspirated, sealed, and scintillation counts read on a Topcount (PerkinElmer). Data were analyzed in Genedata to determine inhibitor IC50 values.
The full length p300 SPA assay was run following the same protocol as p300 HAT SPA assay, but used 6 nM purified full length p300 (purchased from Active Motif) in place of the purified p300-HAT domain.

[3] = test system: acetylation of chromatin at H3K18 (catalyzed by p300 and CBP) in HCT-116 cells; assay: H3K18Ac MSD cellular assay; assay type: cell-based; conditions: 2 hr treatment, average of at least 2 replicate titrations
Description: Select compounds were also evaluated in a H3K18Ac MSD cellular assay that measures the ability of compounds to inhibit the acetylation of chromatin at H3K18, a process catalyzed by p300 and CBP. In a typical experiment the p300 HAT inhibitory activity inside cells of the compounds described herein was determined in accordance with the following experimental method. 20 k HCT-116 cells per well are plated in 75 μL RPMI+10% FBS media the night before treatment. Compounds plated in DMSO at 4× final concentration are resuspended in 30 μL RPMI+10% FBS, then 25 μL is combined with corresponding wells containing cells. Treated cells are incubated for 2 hr at 37° C., then lysed in 500 μL final volume and frozen at −80° C. MSD plates (Meso Scale Discovery) are coated overnight at 4° C. with 60 μL 1:500α-total histone antibody (Millipore MAB3422) in PBS. Plates are then blocked with 5% BSA in TBST shaking at RT for 1 hr, washed, and 30 μL lysate added to each well for 2 hr shaking at RT. Plates are washed and 25 μL 1:216α-H3K18ac antibody (CST 9675) in PBS added, then incubated for 1 hr shaking at RT. Plates are washed again, then 25 μL 1:1000 Sulfo-Tag goat a-rabbit antibody (Meso Scale Discovery R32Ab-1) in PBS is added for 1 hr shaking at RT. Plates are washed once more, then 150 μL 1× Read Buffer (MSD #R92TD-3) is added to all wells and read on MSD SECTOR Imager 2400 using the conventional read setup.

Chain of p300 HAT domain (residues 1287-1666) (Q09472 1287-1666): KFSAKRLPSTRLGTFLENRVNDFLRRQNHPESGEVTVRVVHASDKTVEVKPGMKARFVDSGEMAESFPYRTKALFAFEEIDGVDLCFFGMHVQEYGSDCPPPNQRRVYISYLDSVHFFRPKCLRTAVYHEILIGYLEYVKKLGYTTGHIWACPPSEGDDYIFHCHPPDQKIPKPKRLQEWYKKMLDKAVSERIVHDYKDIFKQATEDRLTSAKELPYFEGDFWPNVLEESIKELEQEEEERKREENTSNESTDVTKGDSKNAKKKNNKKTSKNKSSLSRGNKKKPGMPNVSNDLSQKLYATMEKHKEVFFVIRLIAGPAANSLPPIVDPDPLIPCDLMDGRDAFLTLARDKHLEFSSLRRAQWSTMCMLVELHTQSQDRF
Chain of full length p300 (Q09472 whole entry): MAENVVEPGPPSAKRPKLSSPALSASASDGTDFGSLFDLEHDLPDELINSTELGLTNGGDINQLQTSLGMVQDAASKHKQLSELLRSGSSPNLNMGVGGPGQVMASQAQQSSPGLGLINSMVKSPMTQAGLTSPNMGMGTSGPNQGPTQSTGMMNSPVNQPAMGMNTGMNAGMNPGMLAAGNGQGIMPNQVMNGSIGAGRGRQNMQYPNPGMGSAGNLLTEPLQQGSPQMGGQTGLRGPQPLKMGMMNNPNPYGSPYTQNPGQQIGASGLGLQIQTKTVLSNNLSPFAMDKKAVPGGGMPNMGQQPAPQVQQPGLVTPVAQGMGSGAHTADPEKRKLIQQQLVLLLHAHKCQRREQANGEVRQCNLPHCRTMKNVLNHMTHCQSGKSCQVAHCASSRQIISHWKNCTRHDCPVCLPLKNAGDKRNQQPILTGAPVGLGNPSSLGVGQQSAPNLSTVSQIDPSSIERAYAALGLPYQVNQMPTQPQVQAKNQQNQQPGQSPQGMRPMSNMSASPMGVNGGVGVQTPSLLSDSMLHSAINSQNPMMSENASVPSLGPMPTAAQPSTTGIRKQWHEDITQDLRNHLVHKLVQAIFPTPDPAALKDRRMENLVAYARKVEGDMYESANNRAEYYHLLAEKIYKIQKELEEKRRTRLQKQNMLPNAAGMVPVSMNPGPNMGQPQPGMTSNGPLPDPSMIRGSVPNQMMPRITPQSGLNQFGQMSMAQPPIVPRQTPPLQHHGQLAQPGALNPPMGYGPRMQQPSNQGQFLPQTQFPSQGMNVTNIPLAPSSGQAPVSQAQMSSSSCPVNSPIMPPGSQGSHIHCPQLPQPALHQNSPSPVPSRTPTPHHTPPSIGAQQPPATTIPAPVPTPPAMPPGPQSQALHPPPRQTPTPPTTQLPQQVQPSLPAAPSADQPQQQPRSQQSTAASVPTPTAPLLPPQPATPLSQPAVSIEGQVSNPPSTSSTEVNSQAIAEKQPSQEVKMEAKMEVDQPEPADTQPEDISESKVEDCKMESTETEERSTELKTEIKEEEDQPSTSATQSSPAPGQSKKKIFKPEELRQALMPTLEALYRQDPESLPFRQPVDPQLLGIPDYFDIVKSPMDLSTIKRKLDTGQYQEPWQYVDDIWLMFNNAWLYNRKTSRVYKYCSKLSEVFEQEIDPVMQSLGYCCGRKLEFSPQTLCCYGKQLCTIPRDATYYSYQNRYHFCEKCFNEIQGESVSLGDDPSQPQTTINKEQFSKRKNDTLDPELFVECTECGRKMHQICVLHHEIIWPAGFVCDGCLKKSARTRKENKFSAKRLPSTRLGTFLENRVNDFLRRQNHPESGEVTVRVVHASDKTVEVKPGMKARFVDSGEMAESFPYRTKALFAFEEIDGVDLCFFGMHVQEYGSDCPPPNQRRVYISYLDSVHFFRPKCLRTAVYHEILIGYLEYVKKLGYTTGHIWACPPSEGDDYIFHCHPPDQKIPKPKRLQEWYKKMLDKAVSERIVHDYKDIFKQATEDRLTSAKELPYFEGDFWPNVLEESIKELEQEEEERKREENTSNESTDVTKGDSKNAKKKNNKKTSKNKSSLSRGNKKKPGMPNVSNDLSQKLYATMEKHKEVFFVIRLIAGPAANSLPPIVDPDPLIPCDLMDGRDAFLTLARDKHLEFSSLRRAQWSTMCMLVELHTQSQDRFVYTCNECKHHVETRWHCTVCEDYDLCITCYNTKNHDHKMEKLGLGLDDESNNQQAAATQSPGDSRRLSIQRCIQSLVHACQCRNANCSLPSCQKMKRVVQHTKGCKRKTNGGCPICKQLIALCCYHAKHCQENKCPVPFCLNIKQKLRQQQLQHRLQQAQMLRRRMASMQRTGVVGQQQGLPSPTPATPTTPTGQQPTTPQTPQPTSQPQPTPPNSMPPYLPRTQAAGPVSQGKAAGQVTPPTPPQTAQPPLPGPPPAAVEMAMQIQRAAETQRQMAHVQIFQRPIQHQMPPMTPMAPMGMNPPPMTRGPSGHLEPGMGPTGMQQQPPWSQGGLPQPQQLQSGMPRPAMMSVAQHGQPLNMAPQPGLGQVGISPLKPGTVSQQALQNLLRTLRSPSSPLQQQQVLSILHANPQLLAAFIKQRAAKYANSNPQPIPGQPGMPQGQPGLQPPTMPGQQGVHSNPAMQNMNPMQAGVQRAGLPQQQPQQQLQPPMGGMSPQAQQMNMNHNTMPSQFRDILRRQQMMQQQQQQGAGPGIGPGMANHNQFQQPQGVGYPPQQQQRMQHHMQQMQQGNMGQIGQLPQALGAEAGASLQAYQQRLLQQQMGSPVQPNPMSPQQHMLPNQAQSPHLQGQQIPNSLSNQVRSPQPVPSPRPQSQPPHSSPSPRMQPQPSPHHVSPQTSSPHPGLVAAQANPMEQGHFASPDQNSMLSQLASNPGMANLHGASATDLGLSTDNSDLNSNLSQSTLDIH

Compound | IC50 [1] | IC50 [2] | EC50 ([3]; Homo sapiens, HCT-116, 2 h) | EC50 [3]
O=C(c1c[nH]c2ccccc12)C(NCCc1ccc(Cl)cc1)c1ccccn1 (racemic) [42 Racemic, (rac)-2-((4-chlorophenethyl)amino)-1-(1H-indol-3-yl)-2-(pyridin-2-yl)ethan-1-one] | 9140 nM | 196 nM |  | 
O=C(c1c[nH]c2ccccc12)C(NCCc1ccc(Cl)cc1)c1ccncc1 (racemic) [44 Racemic, (rac)-2-((4-chlorophenethyl)amino)-1-(1H-indol-3-yl)-2-(pyridin-4-yl)ethan-1-one] | 3330 nM | 120 nM |  | 
NS(=O)(=O)c1ccc(CCNC(C(=O)c2c[nH]c3cccnc23)c2ccccc2)cc1 (racemic) [Example 30, (rac)-4-(2-((2-oxo-1-phenyl-2-(1H-pyrrolo[3,2-b]pyridin-3-yl)ethyl)amino)ethyl) benzenesulfonamide] | 32300 nM | 732 nM |  | 
Cn1cc(-c2ccc3c(C(=O)C(NCCc4ccc(C#N)cc4)c4ccccc4)c[nH]c3c2F)cn1 (single isomer, unassigned) [103 Isomer 2] | 118 nM |  | 68.5 nM | 
O=C(c1c[nH]c2cc(-c3ccccn3)ccc12)C(NCCc1ccc(Cl)cc1)c1ccccc1 (single isomer, unassigned) [108 Isomer 1] | 1600 nM |  | 928 nM | 
Cc1cnc(-c2ccc3c(C(=O)C(NCCc4ccc(Cl)cc4)c4ccccc4)c[nH]c3c2)[nH]1 (single isomer, unassigned) [109 Isomer 2] | 195 nM |  | 267 nM | 
Cc1ncc(-c2ccc3c(C(=O)C(NCCc4ccc(Cl)cc4)c4ccccc4)c[nH]c3c2)[nH]1 (single isomer, unassigned) [110 Isomer 2] | 258 nM |  | 308 nM | 
O=C(c1c[nH]c2cc(-c3cccnn3)ccc12)C(NCCc1ccc(Cl)cc1)c1ccccc1 (single isomer, unassigned) [112 Isomer 2] | 136 nM |  | 42.6 nM | 
Cn1cnc(-c2ccc3c(C(=O)C(NCCc4ccc(C#N)cc4)c4ccccc4)c[nH]c3c2)c1 (single isomer, unassigned) [113 Isomer 2] | 28 nM |  | 34.2 nM | 
Cn1cc(-c2ccc3c(C(=O)C(NCCc4ccc(C#N)cc4)c4ccccc4)c[nH]c3c2)nn1 (single isomer, unassigned) [114 Isomer 2] | 19 nM |  | 92.6 nM | 
Cn1cnc(-c2ccc3c(C(=O)C(NCCc4ccc(S(N)(=O)=O)cc4)c4ccccc4)c[nH]c3c2)c1 (single isomer, unassigned) [115 Isomer 2] | 389 nM |  | 530 nM | 
Cn1cc(-c2ccc3c(C(=O)C(NCCc4ccc(S(N)(=O)=O)cc4)c4ccccc4)c[nH]c3c2)nn1 (single isomer, unassigned) [116 Isomer 2] | 413 nM |  | 148 nM | 
NS(=O)(=O)c1ccc(CCNC(C(=O)c2c[nH]c3cc(-n4ccnc4)ccc23)c2ccccc2)cc1 (single isomer, unassigned) [119 Isomer 2] | 580 nM |  | 232 nM | 
N#Cc1ccc(CCNC(C(=O)c2c[nH]c3cc(-n4ccnc4)ccc23)c2ccccc2)cc1 (single isomer, unassigned) [120 Isomer 1] | 987 nM |  |  | 193 nM
N#Cc1ccc(CCNC(C(=O)c2c[nH]c3cc(-n4ccnc4)ccc23)c2ccccc2)cc1 (single isomer, unassigned) [120 Isomer 2] | 172 nM |  |  | 73.1 nM
CN1CCN(c2ccc3c(C(=O)C(NCCc4ccc(C#N)cc4)c4ccccc4)c[nH]c3n2)CC1 (single isomer, unassigned) [121 Isomer 2] | 82 nM |  | 122 nM | 
CN1CCN(c2ccc3c(C(=O)C(NCCc4ccc(C#N)cc4)c4ccccc4)c[nH]c3c2)CC1 (single isomer, unassigned) [122 Isomer 2] | 44 nM |  | 97.5 nM | 
CN1CCN(c2ccc3c(C(=O)C(NCCc4ccc(S(N)(=O)=O)cc4)c4ccccc4)c[nH]c3c2)CC1 (single isomer, unassigned) [124 Isomer 2] | 566 nM |  | 429 nM | 

Compound | IC50 [1] | IC50 [2] | EC50 ([3]; Homo sapiens, HCT-116, 2 h) | EC50 [3]
CNC(=O)c1ccc(CCN[C@H](C(=O)c2c[nH]c3cc(-c4cnn(C)c4)ccc23)c2ccccc2)cc1 (single isomer, unassigned) [131 Isomer 2] | 1290 nM |  | 101 nM | 
Cn1cc(-c2ccc3c(C(=O)C(NCCc4ccc(C(N)=O)cc4)c4ccccc4)c[nH]c3c2)cn1 (single isomer, unassigned) [139 Isomer 2] | 511 nM |  | 53.4 nM | 
Cn1cc(-c2ccc3c(C(=O)C(NCCc4ccc(C(=O)O)cc4Cl)c4ccccc4)c[nH]c3c2)cn1 (single isomer, unassigned) [142 Isomer 2] | 81.6 nM |  | 1200 nM | 
COc1cccc2c(C(=O)[C@@H](NCCc3ccc(S(N)(=O)=O)cc3)c3ccccc3)c[nH]c12 (single isomer, unassigned) [144 Isomer 2] | 1410 nM |  | 1380 nM | 
CCNC(=O)c1ccc2c(C(=O)[C@@H](NCCc3ccc(C#N)cc3)c3ccccc3)c[nH]c2c1 (single isomer, unassigned) [146 Isomer 1] | 786 nM |  |  | 401 nM
CNC(=O)c1ccc2c(C(=O)C(NCCc3ccc(Cl)cc3Cl)c3ccccc3)c[nH]c2c1 (single isomer, unassigned) [151 Isomer 2] | 101 nM |  | 53.5 nM | 
N#Cc1ccc(CCNC(C(=O)c2c[nH]c3cc(C(=O)NCC(F)(F)F)ccc23)c2ccccc2)cc1 (single isomer, unassigned) [157 Isomer 2] | 66 nM |  | 36.4 nM | 
CNC(=O)CCc1ccc2c(C(=O)C(NCCc3ccc(F)cc3)c3ccccc3)c[nH]c2c1 (single isomer, unassigned) [158 Isomer 1] | 1500 nM |  | 641 nM | 
CC(C)(O)CNC(=O)c1ccc2c(C(=O)C(NCCc3ccc(C#N)cc3)c3ccccc3)c[nH]c2c1 (single isomer, unassigned) [161 Isomer 2] | 95.1 nM |  | 78.1 nM | 
CCN1CC(NC(=O)c2ccc3c(C(=O)C(NCCc4ccc(C#N)cc4)c4ccccc4)c[nH]c3c2)C1 (single isomer, unassigned) [163 Isomer 2] | 41.9 nM |  | > 1000 nM | 
N#Cc1ccc(CCNC(C(=O)c2c[nH]c3cc(C(=O)NC4CS(=O)(=O)C4)ccc23)c2ccccc2)cc1 (single isomer, unassigned) [166 Isomer 2] | 28.8 nM |  | 112 nM | 
N#Cc1ccc(CCNC(C(=O)c2c[nH]c3cc(C(=O)NC4COC4)ccc23)c2ccccc2)cc1 (single isomer, unassigned) [174 Isomer 1] | 965 nM |  |  | > 1000 nM
N#Cc1ccc(CCNC(C(=O)c2c[nH]c3cc(C(=O)NC4COC4)ccc23)c2ccccc2)cc1 (single isomer, unassigned) [174 Isomer 2] | 39 nM |  |  | 98.3 nM
CS(=O)(=O)CCCNC(=O)c1ccc2c(C(=O)C(NCCc3ccc(C#N)cc3)c3ccccc3)c[nH]c2c1 (single isomer, unassigned) [175 Isomer 2] | 44 nM |  | 184 nM | 
Cn1cnc(-c2ccc3c(C(=O)[C@@H](NCCc4ccc(C(N)=O)cc4)c4ccccc4)c[nH]c3c2)c1 (single isomer, unassigned) [177 Isomer 2] | 838 nM |  | 1270 nM | 
Cn1cc(-c2ccc3c(C(=O)C(NCCc4ccc(C(N)=O)cc4)c4ccccc4)cnn3c2)cn1 (single isomer, unassigned) [179 Isomer 1] | 302 nM |  | 192 nM | 
Cn1cc(-c2ccc3c(C(=O)C(NCCc4ccc(C(N)=O)cc4)c4ccccc4)c[nH]c3c2)nn1 (single isomer, unassigned) [180 Isomer 2] | 370 nM |  | 219 nM | 
NC(=O)c1ccc(CCNC(C(=O)c2c[nH]c3cc(-n4ccnc4)ccc23)c2ccccc2)cc1 (single isomer, unassigned) [181 Isomer 1] | 642 nM |  | 243 nM | 
